Measurements from PMC9000886, “Protection-Free Strategy for the Synthesis of Boro-Depsipeptides in Aqueous Media under Microwave-Assisted Conditions” (Molecules, 2022).

Assay: Solubility observed when preparing compounds for the cytotoxicity experiments
Type: physicochemical
Settings: reason for exclusion from cytotoxicity experiments; stocks 1 mM in 100% DMSO
Description: HEK293 cells were plated at 70% density in 24-well plates at 37 °C. All compounds were first dissolved in 100% DMSO to give 1 mM as a stock for the following dilutions. […] Further, the cell viability was measured by the 3-(4,5-Dimethyl-2-thiazolyl)-2,5-diphenyl-2H-tetrazolium bromide (MTT) assay. After incubating for 1h, the reaction product was read at 570 nm using a Synergy HT microplate reader (BioTek Instruments, Winooski, VT, USA).

## CC(C)(C)NC(=O)COC(=O)c1ccc(B(O)O)cc1 [Compound 5a, (4-((2-(Tert-Butylamino)-2-Oxoethoxy)carbonyl)phenyl)boronic Acid]
  solubility: poor solubility

## CC(C)C(=O)OC(C(=O)NC(C)(C)C)c1ccc(F)c(B(O)O)c1 (centres unmarked) [Compound 4e, (5-(2-(Tert-Butylamino)-1-(Isobutyryloxy)-2-Oxoethyl)-2-Fluorophenyl)boronic Acid]
  solubility: poor solubility

## CC(C)(C)NC(=O)C(OC(=O)c1ccc(B(O)O)cc1)c1ccnc2ccccc12 (centres unmarked) [Compound 5i, (4-((2-(Tert-Butylamino)-2-Oxo-1-(Quinolin-4-yl)ethoxy)carbonyl)phenyl)boronic Acid]
  solubility: poor solubility

## CC(C)(C)NC(=O)COC(=O)c1ccc(B(O)O)c([N+](=O)[O-])c1 [Compound 5l, (4-((2-(Tert-Butylamino)-2-Oxoethoxy)carbonyl)-2-Nitrophenyl)boronic Acid]
  solubility: poor solubility

## CC(C)(C)NC(=O)C(OC(=O)c1ccc(B(O)O)cc1)c1ccccc1F (centres unmarked) [Compound 5h, (4-((2-(Tert-Butylamino)-1-(2-Fluorophenyl)-2-Oxoethoxy)carbonyl)phenyl)boronic Acid]
  solubility: poor solubility
